Experimental data as given in US20180073018A1, “COMPOSITIONS AND METHODS FOR SPECIFIC REACTIVATION OF HIV LATENT RESERVOIR” (priority 2015, published 2018).

System: TZM-bI cells
Assay: CellTiter-Glo luminescent cell viability assay in TZM-bI cells
Type: cell-based
Conditions: TZM-bI, 5,000 nM
Method: FIG. 10A, FIG. 10B: TZM-bI cells were infected with indicated lentiviruses for 1 d and triple antibiotic selection with puromycin/hygromycin/zeoin (P/H/Z) was maintained for 4 d before passage, OneGlo luciferase reporter assay (FIG. 10A) and CellTiter-Glo® luminescent cell viability assay (FIG. 10B). FIG. 10C, FIG. 10D: CHME5 cells were infected with indicated lentiviruses and cultured for 5 d in the absence or presence of P/H/Z triple selection. Flow cytometry analysis was performed for reactivation efficiency (FIG. 10C) and total survival cell number (FIG. 10D). FIG. 10E: Caspase-Glo® 3/7 Assay was performed at 2 dpi to evaluate apoptotic cell death. […] FIG. 10F, FIG. 10G: The 2D10 cells were infected for 1 and 4 dpi, and the reactivation efficiency (FIG. 10F) and relative total survival cell number (FIG. 10G) were determined by flow cytometry. *p<0.05 and **p<0.01 indicate statistical significance by ANOVA and FLSD test.
FIG. 12A, FIG. 12B, FIG. 12C: The dCas9-VPH stable TZM-bI cells were treated with SAHA or infected with indicated msgRNAs lentivirus for 2-4 d before luminescence reporter assay (FIG. 12A) and CELLTITER-GLO® luminescent cell viability assay (FIG. 12B). […]
The cell growth/proliferation was determined by the trypan blue exclusion hemocytometry, and CELLTITER-GLO luminescence viability assay (Promega). […]

Structure (SMILES): O=C(CCCCCCC(=O)Nc1ccccc1)NO [SAHA, suberoylanilide hydroxamic acid]
- cell viability: killed all the cells
